Data from US12201626B2, “Bifunctional compositions for the treatment of cancer” (ARMACEUTICA, INC., priority 2018, dated 2025).

How the values were obtained:
[1] = test system: plasmid dsDNA (pCMV-dR8.91); test: DNA mobility-shift assay (agarose gel); assay type: binding; parameters: DNA mobility shift: unit of the concentration uncertain; conditions: for DNA mobility shift: 100 ng plasmid DNA
Method: Typically, an experimental compound intercalating or binding to double stranded (ds) DNA will increase the molecular mass resulting from forming complexes, decreasing its electrophoretic mobility in an agarose gel, as compared with untreated dsDNA. To explore the potential interaction between PND and dsDNA, a DNA mobility-shift assay was conducted. Each reaction mixture was of 10 μl total volume in PBS pH 7.4. Both PND (Sigma-Aldrich) and quinacrine (Sigma-Aldrich) were tested with three individual concentrations of 1 μM, 0.5 μM or 0.25 μM, respectively. To each reaction mixture, 100 ng of plasmid dsDNA (pCMV-dR8.91; Addgene, Cambridge, MA) was added and the mixture was then incubated for 30 min at 37° C. and stopped by adding 2 μl of 6× gel loading buffer and placed on ice. The potential binding interaction between both PND and quinacrine with dsDNA were analyzed by using 1% (w/v) agarose-gel electrophoresis dissolved in TAE buffer (0.04 M Tris base, 0.04 M acetate and 0.001 M EDTA) pH 8.0. To stain the dsDNA complexes, Ethidium bromide was added to the agarose gel throughout the electrophoresis process at a concentration of 0.5 μg/ml. DNA migration was visualized by utilizing a gel documentation system and pictures were captured by using a UV-light transilluminator (Alpha Innotech, San Leandro, CA). The well-known DNA intercalator fluorescent compound, propidium iodide (PI), was included as positive controls at 1 μg per reaction. As a control, untreated plasmid DNA was included to determine its normal electrophoretic mobility in the gel.

[2] = test system: MDA-MB-231 cells; test: Phosphatidylserine externalization, annexin V-FITC/PI flow cytometry; assay type: cell-based, human; conditions: 24 h
Method: (§1) To determine whether cell death induced by PND was occurring through apoptosis or necrosis, MDA-MB-231 and HL-60 cells were stained with annexin V-FITC and PI and monitored via flow cytometry. Cells were seeded in 24-well plates at a density of 100,000 for adherent MDA-MB-231 and 200,000 HL-60 cells in 1 ml of culture media. After overnight incubation, cells were treated with PND, and incubated for an additional 24 h. For MDA-MB-231 cells, unattached cells were harvested in an ice-cold tube, while adhered cells were detached by using HyQtase (Thermo Fisher) and incubated for around 5 min at 37° C. Both unattached and detached cells harvested from each individual well were washed with ice-cold PBS and centrifuged at 260×g for 5 min. HL-60 were centrifuged directly after the incubation period as they grow in suspension. Cells were then stained with a mixture of annexin V-FITC and PI in 100 μl of binding buffer and incubated on ice in the dark for 15 minutes, following the manufacturer's instructions (Beckman Coulter). Lastly, the cells were resuspended by the addition of 400 μl of ice-cold binding buffer and analysed by flow cytometry (Cytomics FC500; Beckman Coulter). For this series of experiments, cells treated with PBS, as solvent control; treated with H2O2, as a positive control of cytotoxicity; and untreated were included and processed in parallel. For each sample, 10,000 events/cells were collected and analysed using CXP software (Beckman Coulter). Both the experimental samples and their controls were processed similarly and assessed in triplicate. The sum of both early and late stages of apoptosis was calculated to obtain the total percentage of apoptotic cells.

[3] = test system: HL-60 cells; test: as above; assay type: cell-based, human; conditions: 24 h
Method: as §1

COC1=CC=C2Nc3cc(Cl)ccc3C(N=C3C=C(CN4CCCC4)C(=O)C(CN4CCCC4)=C3)=C2N1 [PND, 4-[(7-chloro-2-methoxy-1,5-dihydrobenzo[b][1,5]naphthyridin-10-yl)imino]-2,6-bis(pyrrolidin-1-ylmethyl)cyclohexa-2,5-dien-1-one]
DNA mobility shift ([1]; 0.5 and 0.25 mM): clear reduction in mobility | DNA mobility shift ([1]; 1 (unit uncertain), 30 min 37° C.): marked reduction of migration | DNA degradation ([1]; fragments smaller than free supercoiled DNA): did not result in DNA degradation | annexin positive cells (PS externalization) ([2]; 11 μM): 67.2% | annexin positive cells (PS externalization) ([2]; 22 μM): 71.1% | apoptotic cells (PS externalization) ([3]; 34 μM): 14.8% | apoptotic cells (PS externalization) ([3]; 68 μM): 30.2%
